Holding throughout (type): cell-based
In data set [1] the test system is human astrocytes (HA). Description: MTT cell viability assay. The conditions noted are these: HA treated with Coc (1 μM), 7 days. Here is the method:
The MTT cell viability assay was examined using a modified assay method as described by Rao et al (Kurapati et al. 2012). After 7 days of HIV-infection and/or treatment with an optimum concentration of Coc (1 μM), 6-well plates were given media change with 1 mL of medium. Then, 100 μL of MTT (100 mg MTT/20 ml PBS) was added to each well and the wells were incubated for 3 h at 37° C. Further, one volume of stop mix solution was added to each well. The plates were then rocked for about 2 h and centrifuged.
The optical density of the solubilized formazan was determined spectrophotometrically measuring the absorbance at 550 nm after transferring into the 96-well plate. The optical density of formazan in each well is directly proportional to the cell viability and utilized for calculations.
Considering cell viability as a major factor, HA toxicity was evaluated in terms of cell viability as a function of levels of HIV infection ranging from 10 ng/mL to 30 ng/mL using MTT assay.
Background: Tetrazolium assays rely on reduction of a dye to a coloured formazan, in cell work by metabolically active cells.

The subject of data set [2] is human astrocytes (HA). Put plainly: EIS measurement of charge transfer resistance (Rct) of HA grown on IDE-Au cultureware chip. Here is the method:
A cultureware chip (CC) comprising eight wells was procured from Applied Biophysics (#8WCP PET arrays) and used to grow HA for HIV infection and subsequent drug treatments. Each well (substrate area of 0.8 cm^2 and maximum volume of 600 μL) of the CC comprised a sensing substrate configured to have gold-based IDE (IDE-Au; surface area: 3.985 mm^2). In each well and on the sensing substrate, the IDE-Au array was useful to grow a large number of cells (e.g., approximately between 4000 and 8000) and designed in such a way to perform electrochemical measurements without fluctuation.
EIS was conducted in 400 μL of 5 mM PBS (pH 7.4) comprising 5 mM Fe (II)/Fe(III) as redox moieties using VMP3, a multi-channel potentiostat/galvanostats obtained from BioLogic Instruments. Each EIS measurement was made in sets of triplet and an average was used for analytical interpretation. Before processing the CC for cell culture, EIS measurement was made on […] each well. […] The cyclic voltammetry (CV) studies were also performed on CC using identical experimental conditions to validate results obtained using EIS.
A portion of the Nyquist plot of cells grown on IDE-Au takes on a semicircle shape at higher frequency that corresponds to the electron-transfer limited process. The […] of this semicircle represents the charge transfer resistance, Rct, of the system. The semicircle is followed by a linear portion of the curve (45° to the axes) corresponding to the diffusion-controlled electron transfer process (Kaushik et al. 2010).
For a biological system, the Rct value […] intra/extracellular cell properties, such as the electrical and physical properties of the HA. As a result, Rct was selected as the parameter for the assessment of HIV infection in HA and on treatments with Coc and drugs specific to both HIV and Coc. The EIS was performed on HA as a function of HIV infection doses which varies from 10 ng/mL to 30 ng/mL (FIG. 2A (b)).
Primary HA were grown in the eight-well CC plate at a concentration of approximately 8,000 cells and infected with different concentrations (ranging from 10 ng/mL to 30 ng/mL) of HIV-1 using a previously described protocol (Atluri et al. 2013; Eugenin and Berman 2007). Each well was used for a separate treatment.
After overnight infection, unabsorbed virus was washed away using PBS (pH 7.4), and the infected cells were cultured for 5 days in the presence or absence of Coc (1 μM). RA (2 μM) was added to the designated wells (specific to Coc) 2 h before each treatment involving Coc. The optimized dose of Coc selected for this study was 1 μM, which was based on our dose response study for cytotoxicity and HIV infectivity (Roy et al. 2015).
On the 5th day, 100 μg (100 μL of 1 mg/mL) of Tef was added to wells specific to HIV and incubated for 7 days in total. The dose of Tef was selected on the basis of its toxicity and efficacy as reported in our previous publication (Jayant et al. 2015).
To evaluate variations in HIV infection as a function of the Rct value (FIGS. 3A-3D) measured using EIS, an experiment was planned in 9 wells as described in FIGS. 3A-3D.

In data set [3] the test system is HIV-1Ba-L (clade B). Description: p24 antigen estimation by ELISA (level of HIV infection in HA). An excerpt:
Primary HA were purchased from ScienCell Research Laboratories (Carlsbad, Calif.; Cat. #1800-5) and grown in astrocyte medium purchased from ScienCell Laboratories (Cat. #1801) comprising 2% of fetal bovine serum (ScienCell Cat. #0010), astrocyte growth supplement (ScienCell Cat. #1852), and penicillin/streptomycin (ScienCell Cat. #0503). HIV-1Ba-L (clade B) (NIH AIDS Reagent Program Cat. #510) was obtained through AIDS Research and Reference Reagent Program, Division of AIDS, NIAID, NIH. The Cocaine hydrochloride-Sigma (Cat# C5776), rimcazole dihydrochloride-Tocris (1497, CAS#75859-03-9), and tenofovir disoproxil fumarate-Sigma (1643656; CAS #202138-50-9) were also obtained for this research.
Primary HA were grown in the eight-well CC plate at a concentration of approximately 8,000 cells and infected with different concentrations (ranging from 10 ng/mL to 30 ng/mL) of HIV-1 using a previously described protocol (Atluri et al. 2013; Eugenin and Berman 2007). Each well was used for a separate treatment. […]
450 μl of undiluted HA culture supernatant was mixed with 50 μL of lysing buffer. […] After incubation, 100 μL of stop solution was added to each well and the optical density of each well was read at 450 nm using a microplate reader (Yndart et al. 2015). […]

Structures can show the parent of a compound that is named as a salt.

The cell viability is a per cent measure of how many cells are alive, often set against a control. A higher cell viability goes with better survival. Turning to `COC(=O)[C@H]1[C@@H](OC(=O)c2ccccc2)C[C@@H]2CC[C@H]1N2C` [Coc, cocaine], the cell viability in data set [1] is listed as approximately 85%. Besides, the Rct came out at 21 KS in data set [2] (HA+Coc (1 μM), normal HA 48) and 140 KS in data set [2] (HA+HIV+Coc).

With `C[C@@H]1CN(CCCn2c3ccccc3c3ccccc32)C[C@H](C)N1` [RA, rimcazole dihydrochloride], the “level of HIV infection (p24 antigen)” value in data set [3] (HIV-infected HA with Coc and RA (2 μM) vs cells treated with HIV and Coc alone) is listed as “not statistically significant”. The Rct stood at 34 KΩ in data set [2] (HA+Coc+RA (2 μM)) and 105 KΩ in data set [2] (HA+HIV+Coc+RA).

As to `CC(C)OC(=O)OCOP(=O)(CO[C@H](C)Cn1cnc2c(N)ncnc21)OCOC(=O)OC(C)C.O=C(O)/C=C/C(=O)O` [Tef, tenofovir disoproxil fumarate], in data set [3] (HIV-infected HA treated with Tef (100 μg) vs HIV-infected cells alone), the “level of HIV infection (p24 antigen)” value is listed as “significant reduction”. The Rct in data set [2] (HA+HIV+Coc+Tef) amounted to 93 KS; in data set [2] (HIV-infected HA (20 ng/mL) after Tef, HA+HIV without drug 210) it was 150 KΩ.

Values taken from patent US9759709B1, “Devices and methods to monitor HIV-infection in presence of substance of abuse and/or therapeutic agent” (THE FLORIDA INTERNATIONAL UNIVERSITY BOARD OF TRUSTEES, priority 2016, dated 2017).
